{
  "source": "patent US11116771B2",
  "about": "“G protein-coupled receptor (GPCR) modulation by imipridones” (Oncoceutics, Inc., priority 2016, dated 2021)",
  "key": {"[1]": {"tested_on": "DRD2 (short and long isoforms)", "assay": "β-arrestin recruitment GPCR reporter assay, DRD2", "format": "cell-based"}, "human cancer cells": {"tested_on": "human cancer cells", "assay": "Viability of human cancer cells at 72 hours post-treatment", "format": "cell-based", "conditions": "relative to the potency of ONC201; viability of human cancer cells at 72 hours post-treatment"}, "GPCRs": {"tested_on": "GPCRs", "assay": "GPCR profiling by arrestin recruitment reporter assay (panel)", "format": "cell-based", "conditions": "10 μM"}, "CXCR7": {"target": "CXCR7 (Homo sapiens, UniProt P25106)", "sequence (P25106 whole entry)": "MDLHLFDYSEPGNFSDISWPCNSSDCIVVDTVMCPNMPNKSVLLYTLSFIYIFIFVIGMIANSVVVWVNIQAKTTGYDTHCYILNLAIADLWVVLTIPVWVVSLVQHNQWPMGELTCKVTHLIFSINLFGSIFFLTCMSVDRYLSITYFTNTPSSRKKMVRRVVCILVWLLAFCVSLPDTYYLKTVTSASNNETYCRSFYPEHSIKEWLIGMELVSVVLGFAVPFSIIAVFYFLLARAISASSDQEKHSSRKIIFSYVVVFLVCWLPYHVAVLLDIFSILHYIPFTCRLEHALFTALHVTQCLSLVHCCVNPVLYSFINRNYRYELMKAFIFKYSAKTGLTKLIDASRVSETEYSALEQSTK", "assay": "β-arrestin recruitment GPCR reporter assay, CXCR7", "format": "cell-based"}, "DRD5": {"target": "DRD5 (Homo sapiens, UniProt P21918)", "sequence (P21918 whole entry)": "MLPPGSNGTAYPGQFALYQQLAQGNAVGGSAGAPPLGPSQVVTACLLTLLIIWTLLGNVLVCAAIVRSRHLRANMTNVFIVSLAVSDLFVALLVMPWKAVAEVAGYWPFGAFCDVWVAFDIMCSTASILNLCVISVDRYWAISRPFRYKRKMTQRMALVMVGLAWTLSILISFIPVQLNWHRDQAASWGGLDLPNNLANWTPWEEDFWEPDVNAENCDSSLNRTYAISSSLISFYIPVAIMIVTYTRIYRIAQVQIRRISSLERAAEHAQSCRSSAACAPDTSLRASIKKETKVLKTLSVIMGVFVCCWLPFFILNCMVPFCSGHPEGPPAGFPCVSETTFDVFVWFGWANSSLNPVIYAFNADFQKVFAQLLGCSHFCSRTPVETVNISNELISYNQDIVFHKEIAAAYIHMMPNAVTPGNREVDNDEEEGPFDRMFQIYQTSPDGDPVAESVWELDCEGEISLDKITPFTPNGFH", "assay": "β-arrestin recruitment GPCR reporter assay, DRD5", "format": "cell-based", "conditions": "arrestin recruitment reporter assay"}, "[2]": {"conditions": "Jacob et al. 2014; Wagner et al. 2015; cited from earlier work"}, "[3]": {"tested_on": "Staphylococcus aureus ATCC 29213", "assay": "MIC by micro-broth dilution, S. aureus ATCC 29213", "format": "cell-based", "conditions": "ATCC29213"}, "[4]": {"tested_on": "Staphylococcus aureus ATCC 33591", "assay": "MIC by micro-broth dilution, S. aureus ATCC 33591", "format": "cell-based", "conditions": "ATCC33591"}, "[5]": {"tested_on": "Staphylococcus aureus ATCC 700699", "assay": "MIC by micro-broth dilution, S. aureus ATCC 700699", "format": "cell-based", "conditions": "ATCC700699"}, "DRD2L": {"target": "DRD2L (Homo sapiens, UniProt P14416)", "sequence (P14416 whole entry)": "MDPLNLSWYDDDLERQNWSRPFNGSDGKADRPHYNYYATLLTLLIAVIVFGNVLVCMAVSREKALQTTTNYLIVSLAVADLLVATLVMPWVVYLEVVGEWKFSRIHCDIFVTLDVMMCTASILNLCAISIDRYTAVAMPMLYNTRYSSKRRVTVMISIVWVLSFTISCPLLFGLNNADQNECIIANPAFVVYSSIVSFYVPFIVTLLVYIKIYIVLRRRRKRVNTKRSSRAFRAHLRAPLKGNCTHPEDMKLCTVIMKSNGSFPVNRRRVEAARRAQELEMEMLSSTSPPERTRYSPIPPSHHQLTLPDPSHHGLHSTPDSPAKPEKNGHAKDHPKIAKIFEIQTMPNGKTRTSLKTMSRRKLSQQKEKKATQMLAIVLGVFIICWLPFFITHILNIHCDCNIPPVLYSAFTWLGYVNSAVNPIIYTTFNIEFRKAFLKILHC", "assay": "Gaddum/Schild analysis of arrestin recruitment to DRD2L", "format": "cell-based", "conditions": "arrestin recruitment / cAMP reporters (FIGS. 5B, 5C, 5F)"}},
  "note": "Like-named read-outs stand apart in the source and are kept apart here.",
  "data": [
    {"smiles": "O=C1C2=C(CCN(Cc3ccc(Cl)c(Cl)c3)C2)N2CCN=C2N1Cc1ccc(C(F)(F)F)cc1", "note": "[ONC234]", "values": [
      {"measurement": "GPCR activity, DRD2", "setting": "[1]", "value": "antagonist activity"},
      {"measurement": "Relative Potency*", "setting": "human cancer cells", "value": "A (A Indicates a potency increase of >2-fold of ONC201)"},
      {"measurement": "GPCR profile / selectivity", "setting": "GPCRs", "value": "broad spectrum and potent GPCR targeting small molecule"},
      {"measurement": "GPCR activity, CXCR7", "setting": "CXCR7", "value": "CXCR7 agonist activity"},
      {"measurement": "GPCR activity, DRD5", "setting": "DRD5", "value": "antagonist activity"}
    ]},
    {"smiles": "Cc1ccccc1CN1C2=NCCN2C(=O)C2=C1CCN(Cc1ccccc1)C2", "note": "[TIC-10]", "values": [
      {"measurement": "anti-cancer activity", "setting": "[2]", "value": "lacks anti-cancer activity"},
      {"measurement": "MIC", "setting": "[3]; wild type Staphylococcus aureus (ATCC 29213), read-out: MIC", "value": "> 100", "unit": "µg/mL"},
      {"measurement": "MIC90", "setting": "[3]; Staphylococcus aureus, ATCC 29213, 24 hours, read-out: MIC90", "value": "> 100", "unit": "µg/mL"},
      {"measurement": "MIC", "setting": "[3]; Staphylococcus aureus, ATCC 29213, 24 hours, read-out: MIC95", "value": "> 100", "unit": "µg/mL"},
      {"measurement": "MIC99", "setting": "[3]; Staphylococcus aureus, ATCC 29213, 24 hours, read-out: MIC99", "value": "> 100", "unit": "µg/mL"},
      {"measurement": "MIC", "setting": "[3]; Staphylococcus aureus, ATCC 29213, 24 hours, read-out: MIC, Visual", "value": "> 100", "unit": "µg/mL"},
      {"measurement": "MIC", "setting": "[4]; Staphylococcus aureus (ATCC 33591), methicillin resistant, read-out: MIC", "value": "> 100", "unit": "µg/mL"},
      {"measurement": "MIC90", "setting": "[4]; Staphylococcus aureus, ATCC 33591, 24 hours, read-out: MIC90", "value": "> 100", "unit": "µg/mL"},
      {"measurement": "MIC", "setting": "[4]; Staphylococcus aureus, ATCC 33591, 24 hours, read-out: MIC95", "value": "> 100", "unit": "µg/mL"},
      {"measurement": "MIC99", "setting": "[4]; Staphylococcus aureus, ATCC 33591, 24 hours, read-out: MIC99", "value": "> 100", "unit": "µg/mL"},
      {"measurement": "MIC", "setting": "[4]; Staphylococcus aureus, ATCC 33591, 24 hours, read-out: MIC, Visual", "value": "> 100", "unit": "µg/mL"},
      {"measurement": "GPCR activity, CXCR7", "setting": "CXCR7", "value": "CXCR7 agonist"},
      {"measurement": "MIC", "setting": "[5]; MDR Staphylococcus aureus (ATCC 700699), read-out: MIC", "value": "> 100", "unit": "µg/mL"},
      {"measurement": "MIC90", "setting": "[5]; Staphylococcus aureus, ATCC 700699 (48 hours), read-out: MIC90", "value": "> 100", "unit": "µg/mL"},
      {"measurement": "MIC", "setting": "[5]; Staphylococcus aureus, ATCC 700699 (48 hours), read-out: MIC95", "value": "> 100", "unit": "µg/mL"},
      {"measurement": "MIC99", "setting": "[5]; Staphylococcus aureus, ATCC 700699 (48 hours), read-out: MIC99", "value": "> 100", "unit": "µg/mL"},
      {"measurement": "MIC", "setting": "[5]; Staphylococcus aureus, ATCC 700699 (48 hours), read-out: MIC, Visual", "value": "> 100", "unit": "µg/mL"},
      {"measurement": "antagonism of DRD2L", "setting": "DRD2L", "value": "did not inhibit"}
    ]}
  ]
}
